The source of these data is article PMC4684357, “Comparative Evaluation of the Antimicrobial Activity of Different Antimicrobial Peptides against a Range of Pathogenic Bacteria” (PLoS ONE, 2015).

The test system of data set [1] is E. coli ATCC25922. As for the experimental part:
The minimum inhibitory concentrations (MICs) of the AMPs were measured in 96-well microtiter plates according to the Clinical and Laboratory Standards Institute (CLSI, formerly National Committee for Clinical Laboratory Standards [NCCLS]). Briefly, liquid Mueller-Hinton-II medium containing increasing concentrations of AMPs is inoculated with a defined number of cells (approx. 10^5 CFUs/ml) in 96-well microtiter plates (polypropylene), whereas each plate also includes a positive growth control and a negative control (sterile control). After incubation, the MIC is determined by the lowest concentration showing no visible growth. All plates were incubated for 18–20 hours, except the F. psychrophilum plates which were incubated for 72 hours. […]

In data set [2] the test system is E. coli ATCC25922. It counts as cell-based, Escherichia coli. The source says: (§1) The Yersinia ruckeri strain was kindly provided by Prof. Kurt Buchmann, University of Copenhagen, Faculty of Health and Medical Sciences, and the Flavobacterium psychrophilum strain was kindly provided by Prof. Inger Dalsgaard, DTU, Denmark. BW25113 is the Escherichia coli wild-type strain, a derivative of the F^-,λ^- E. coli K12 strain BD792 which was used in generating the KEIO collection. E. coli ATCC25922 is a clinical isolate, serotype O6 and is often used as control strain in antimicrobial susceptibility testing. All strains were grown in Mueller-Hinton-II medium, except L. monocytogenes which was grown in BHI medium and F. psychrophilum which was grown in TYES medium (Tryptone yeast extract plus salts). Incubation took place aerobically at 37°C, except for Y. ruckeri and A. salmonicida, which were grown aerobically at RT (20°C), C. jejuni NCTC11168 which was grown under microaerophilic conditions at 42°C and F. psychrophilum 1947 which was grown under aerobic conditions at 15°C. All plates were incubated for 18–20 hours, except the F. psychrophilum plates, which were incubated for 72 hours.
All plates were incubated for 18–20 hours, except the F. psychrophilum plates which were incubated for 72 hours.
All the MIC measurements were carried out in duplicate.

The test system of data set [3] is BW25113 wild-type. The data set can be described thus: MIC in LPS backgrounds. It counts as cell-based, Escherichia coli. As to conditions: E. coli BW25113 wild-type; CLSI; triplicates.
Description: as §1
(§2) The minimum inhibitory concentrations (MICs) of the AMPs were measured in 96-well microtiter plates according to the Clinical and Laboratory Standards Institute (CLSI, formerly National Committee for Clinical Laboratory Standards [NCCLS]). Briefly, liquid Mueller-Hinton-II medium containing increasing concentrations of AMPs is inoculated with a defined number of cells (approx. 10^5 CFUs/ml) in 96-well microtiter plates (polypropylene), whereas each plate also includes a positive growth control and a negative control (sterile control). After incubation, the MIC is determined by the lowest concentration showing no visible growth. All plates were incubated for 18–20 hours, except the F. psychrophilum plates which were incubated for 72 hours.

Data set [4] relates to ATCC25922 ΔrfaF. The data set is classed as cell-based, Escherichia coli. As to conditions: E. coli ATCC25922 ΔrfaF; CLSI; triplicates.
Description: as §1, §2
(§3) Construction of knock-out mutants of E. coli ATCC25922 were constructed using the λ-Red recombinase gene replacement system. Primers for amplification of the npt gene of pKD4 are listed in S1 Table. The correct double-crossover and recombination event was confirmed by primers listed in S1 Table and by sequencing. Finally, the kanamycin cassette was removed.

In data set [5] the test system is ATCC25922 ΔrfaG. It counts as cell-based, Escherichia coli. To be noted: E. coli ATCC25922 ΔrfaG; CLSI; triplicates.
Description: as §1, §2, §3

For data set [6], the system named is ATCC25922 ΔrfaC. The data set is classed as cell-based, Escherichia coli. To be noted: E. coli ATCC25922 ΔrfaC; CLSI; triplicates.
Description: as §1, §2, §3

Data set [7] concerns ATCC25922 ΔrfaE. It counts as cell-based, Escherichia coli. To be noted: E. coli ATCC25922 ΔrfaE; CLSI; triplicates.
Description: as §1, §2, §3

Data set [8] relates to BW25113 ΔrfaG. It counts as cell-based, Escherichia coli. As to conditions: E. coli BW25113 ΔrfaG; CLSI; triplicates.
Description: as §1, §2

The test system of data set [9] is BW25113 ΔrfaF. The data set is classed as cell-based, Escherichia coli. To be noted: E. coli BW25113 ΔrfaF; CLSI; triplicates.
Description: as §1, §2

For data set [10], the system named is BW25113 ΔrfaE. It counts as cell-based, Escherichia coli. As to conditions: E. coli BW25113 ΔrfaE; CLSI; triplicates.
Description: as §1, §2

In data set [11] the test system is BW25113 ΔrfaC. It counts as cell-based, Escherichia coli. As to conditions: E. coli BW25113 ΔrfaC; CLSI; triplicates.
Description: as §1, §2

Data set [12] concerns horse erythrocytes. The data set can be described thus: Cytotoxicity assay: haemoglobin release (hemolytic activity). As to conditions: washed horse erythrocytes 10% (v/v) in PBS, 60 min 37°C, absorbance 540 nm, relative to full lysis by 0.2% Triton X-100, average ± SD of duplicates. It counts as cell-based. As for the experimental part:
The cytotoxicity for each AMP was determined spectrophotometrically by measuring the haemoglobin release from horse erythrocytes. Briefly, fresh defibrinated horse blood was washed three times with PBS, centrifuged for 15 minutes at 1000g and resuspended at 10% (v/v) in PBS. Samples of the washed horse erythrocytes (100 μl) were transferred to a 96 well microtiter plate and mixed with 100 μl AMP solution. PBS was used as a negative control, and 0.2% TritonX-100 was used as a positive control. The microtiter plates were incubated for 60 minutes at 37°C and then centrifuged for 10 minutes at 1300g. The supernatants were transferred to a flat-bottom 96 well polystyrene microtiter plate and the haemoglobin release was monitored by measuring the absorbance at 540 nm. The percentage of hemolysis was calculated as 100 *(Asample−APBS)/(ATritonX-100 –APBS), where Asample is the experimental absorbance of the peptide sample, APBS is the control absorbance of untreated erythrocytes, and ATritonX-100 is the absorbance of 0.2% TritonX-100 lysed cells.

Like-named read-outs stand apart in the source and are kept apart here. Residues, ends and D or L forms follow the SMILES beside them. No end group written: not given here.

As to `CC[C@H](C)[C@H](NC(=O)[C@H](CCCCN)NC(=O)[C@H](CCCCN)NC(=O)[C@H](CC(C)C)NC(=O)[C@H](CCCCN)NC(=O)[C@H](CCC(=O)O)NC(=O)[C@H](CCCCN)NC(=O)[C@@H](NC(=O)[C@H](CCCCN)NC(=O)[C@H](CC(N)=O)NC(=O)[C@H](CCCNC(=N)N)NC(=O)[C@H](Cc1ccccc1)NC(=O)[C@H](CCCCN)NC(=O)[C@H](CCCNC(=N)N)NC(=O)[C@H](CC(C)C)NC(=O)[C@H](CCCNC(=N)N)NC(=O)[C@H](CCCCN)NC(=O)[C@H](CCCNC(=N)N)NC(=O)[C@H](CC(C)C)NC(=O)CN)[C@@H](C)CC)C(=O)NCC(=O)N[C@@H](CCC(N)=O)C(=O)N[C@@H](CCCCN)C(=O)N[C@H](C(=O)N[C@@H](CCC(N)=O)C(=O)NCC(=O)N[C@@H](CC(C)C)C(=O)N[C@@H](CC(C)C)C(=O)N1CCC[C@H]1C(=O)N[C@@H](CCCCN)C(=O)N[C@@H](CC(C)C)C(=O)N[C@@H](C)C(=O)N1CCC[C@H]1C(=O)N[C@@H](CCCNC(=N)N)C(=O)N[C@H](C(=O)N[C@@H](CC(=O)O)C(=O)N[C@@H](Cc1ccc(O)cc1)C(=O)O)[C@@H](C)O)[C@@H](C)CC` [Cap18] (H-GLRKRLRKFRNKIKEKLKKIGQKIQGLLPKLAPRTDY-OH), the “Antimicrobial Activity MIC” value was 8 µg/mL in data set [1]; 4 µg/mL in [2]; 4 to 8 µg/mL in data set [3]; 2 µg/mL in [4]; 2 µg/mL in [5]; 2 µg/mL in data set [6]. Besides, the “Antimicrobial Activity MIC” value in data set [7] was 2 µg/mL; in data set [8] it was 4 µg/mL; in data set [9], 4 µg/mL; in [10], 4 µg/mL; in data set [11], 4 µg/mL.

As to `CC[C@H](C)[C@H](NC(=O)CNC(=O)[C@H](CCC(=O)O)NC(=O)[C@H](CO)NC(=O)[C@@H](NC(=O)[C@H](CCCNC(=N)N)NC(=O)[C@H](CCCCN)NC(=O)[C@H](CCCCN)NC(=O)[C@H](C)NC(=O)[C@H](CO)NC(=O)[C@H](CC(N)=O)NC(=O)[C@H](CCC(=O)O)NC(=O)[C@H](CC(C)C)NC(=O)[C@H](CCCCN)NC(=O)[C@H](CCCCN)NC(=O)[C@H](C)NC(=O)[C@@H](NC(=O)[C@H](CCCCN)NC(=O)[C@H](CO)NC(=O)[C@H](CC(C)C)NC(=O)[C@H](Cc1c[nH]c2ccccc12)NC(=O)[C@@H](N)CO)[C@@H](C)O)[C@@H](C)CC)C(=O)N[C@@H](C)C(=O)N[C@H](C(=O)N[C@@H](C)C(=O)N[C@H](C(=O)N[C@@H](CCC(N)=O)C(=O)NCC(=O)NCC(=O)N1CCC[C@H]1C(=O)N[C@@H](CCCNC(=N)N)C(=O)O)[C@@H](C)CC)[C@@H](C)CC` [Cecropin P1] (H-SWLSKTAKKLENSAKKRISEGIAIAIQGGPR-OH), the “Antimicrobial Activity MIC” value in data set [1] was 16 µg/mL; in data set [2], 32 µg/mL; in data set [3], 16 to 32 µg/mL; in [4], 8 µg/mL; in [5], 16 µg/mL; in data set [6], 8 µg/mL. Besides, the “Antimicrobial Activity MIC” value was determined as 8 µg/mL in data set [7]; 16 µg/mL in [8]; 4 µg/mL in [9]; 8 µg/mL in data set [10]; 8 µg/mL in [11].

As for `CC[C@H](C)[C@H](NC(=O)CN)C(=O)NCC(=O)N[C@@H](C)C(=O)N[C@H](C(=O)N[C@@H](CC(C)C)C(=O)N[C@@H](CCCCN)C(=O)N[C@H](C(=O)N[C@@H](CC(C)C)C(=O)N[C@H](C(=O)N[C@H](C(=O)NCC(=O)N[C@@H](CC(C)C)C(=O)N1CCC[C@H]1C(=O)N[C@@H](C)C(=O)N[C@@H](CC(C)C)C(=O)N[C@H](C(=O)N[C@@H](CO)C(=O)N[C@@H](Cc1c[nH]c2ccccc12)C(=O)N[C@H](C(=O)N[C@@H](CCCCN)C(=O)N[C@@H](CCCNC(=N)N)C(=O)N[C@@H](CCCCN)C(=O)N[C@@H](CCCNC(=N)N)C(=O)N[C@@H](CCC(N)=O)C(=O)N[C@@H](CCC(N)=O)C(N)=O)[C@@H](C)CC)[C@@H](C)CC)[C@@H](C)O)[C@@H](C)O)C(C)C)C(C)C` [Melittin, reference compound], in data set [12] (peptide 128 μg/ml), the “Hemolytic Activity” value is given as 110 ± 1%. The “Antimicrobial Activity MIC” value in data set [3] is 16 to 32 µg/mL; in data set [4] it was 2 µg/mL; in [5], 4 µg/mL; in [6], 2 µg/mL; in [7], 2 µg/mL; in data set [8], 4 µg/mL. In addition, the “Antimicrobial Activity MIC” value in data set [9], in [10] and in [11] was 4 µg/mL in each case.

Take `CC[C@H](C)[C@H](NC(=O)[C@@H]1CCCN1C(=O)[C@H](CCCNC(=N)N)NC(=O)[C@@H]1CCCN1C(=O)[C@@H]1CCCN1C(=O)[C@@H](NC(=O)[C@@H]1CCCN1C(=O)[C@H](CCCNC(=N)N)NC(=O)[C@@H]1CCCN1C(=O)[C@H](CC(C)C)NC(=O)[C@H](Cc1ccc(O)cc1)NC(=O)[C@H](CO)NC(=O)CNC(=O)[C@H](CCCCN)NC(=O)[C@H](CC(=O)O)NC(=O)[C@@H](N)C(C)C)[C@@H](C)O)C(=O)N[C@@H](Cc1ccc(O)cc1)C(=O)N[C@@H](CC(N)=O)C(=O)N[C@@H](CCCNC(=N)N)C(=O)N[C@@H](CC(N)=O)C(=O)O` [Pyrrhocoricin] (H-VDKGSYLPRPTPPRPIYNRN-OH): the “Hemolytic Activity” value in data set [12] (peptide 256 μg/ml) was 0 ± 0%.

On to “GLRKKFRKTRKRIQKLGRKIGKTGRKVWKAWREYGQIPYPCRI [Cap11]”, for which the “Antimicrobial Activity MIC” value in data set [1] was 8 µg/mL; in data set [2] it was 16 µg/mL; in data set [3], 8 µg/mL; in data set [4], 4 µg/mL; in data set [5], 8 µg/mL; in data set [6], 4 µg/mL. The “Antimicrobial Activity MIC” value in [7] was 4 µg/mL; in data set [8] it was 8 µg/mL; in [9], 8 µg/mL; in data set [10], 8 µg/mL; in data set [11], 8 µg/mL.
